Patent US9757380B2 (Southern Research Institute, priority 2007, dated 2017)

Assays:
Format in all cases: in vivo, mice
DU-145 (prostate) = test: DU-145 prostate xenograph model, clofarabine combined with radiation; conditions: clofarabine 30 mg/kg/dose, ip, d. 13-24, radiation 2 Gy
Excerpt: (§1) Xenograph models including DU-145 (prostate), NCI-H460 NSCL (lung), SF-295 CNS (glioblastoma), SR475HN (head and neck), PANC-1 (pancreatic), and HCT-116 (colon) are employed to study the effect of compounds according to the instant disclosure combined with radiation therapy. Mice are implanted with tumor fragments subcutaneously from an in vivo passage and the tumors are allowed to grow. Mice with tumors in a designated size range are selected for the studies.

PANC-1 (pancreatic) = test: PANC-1 pancreatic xenograph model, clofarabine combined with radiation; conditions: clofarabine 30 mg/kg/dose, ip, d. 12-23, radiation 2 Gy
Excerpt: as §1

HCT-116 (colon) = test: HCT-116 colon xenograph model, clofarabine combined with radiation; conditions: clofarabine 30mg/kg/dose, ip, d. 13-24, radiation 2 Gy
Excerpt: as §1

SR475HN (head and neck) = test: SR475HN head and neck xenograph model, clofarabine combined with radiation; conditions: SR475 head & neck, clofarabine 30 mg/kg/dose, ip, d. 19-30, radiation 2 Gy, d. 19-23, 26-30
Excerpt: as §1

[1] = system: SF-295 CNS (glioblastoma); test: SF-295 CNS glioblastoma xenograph model, clofarabine combined with radiation; conditions: clofarabine 30 mg/kg/dose, ip, d. 8-17, radiation 3 Gy, d. 8, 11, 14, 17
Excerpt: as §1

NCI-H460 NSCL (lung) = test: NCI-H460 NSCL lung xenograph model, clofarabine combined with radiation; conditions: clofarabine 30 mg/kg/dose, ip, d. 8-17, radiation 3 Gy
Excerpt: as §1

tumor models = test: Xenograph models combined with radiation therapy (overall statement); conditions: compared with clofarabine
Excerpt: as §1

Row | Compound | Tumor-Free Survivors/Total (DU-145 (prostate); d. 13-17, 20-24) | Growth Delay (T-C, days) (DU-145 (prostate); d. 13-17, 20-24, combination: clofarabine first, radiation 1 hour later) [days] | Tumor-Free Survivors/Total (PANC-1 (pancreatic); d. 12-16, 19-23) | Growth Delay (T-C, days) (PANC-1 (pancreatic); d. 12-16, 19-23, based on 2 tumor doublings) [days] | Tumor-Free Survivors/Total (HCT-116 (colon); d. 13-17, 20-24) | Growth Delay (T-C, days) (HCT-116 (colon); d. 13-17, 20-24, based on 3 tumor doublings) [days] | Tumor-Free Survivors/Total (SR475HN (head and neck)) | Growth Delay (T-C, days) (SR475HN (head and neck); based on 2 tumor doublings) [days] | Growth Delay (T-C, days) [1] [days] | Tumor-Free Survivors/Total [1] | Tumor-Free Survivors/Total (NCI-H460 NSCL (lung); d. 8, 11, 14, 17) | Growth Delay (T-C, days) (NCI-H460 NSCL (lung); d. 8, 11, 14, 17, based on time to 3 tumor doublings) [days] | radiosensitizing capacity (tumor models)
1 | Nc1nc(Cl)nc2c1ncn2[C@@H]1O[C@H](CO)[C@@H](O)[C@@H]1F [Clofarabine] | 0/6 | 4.3 | 0/6 | 17.2 | 0/6 | 24.2 | 0/6 | 18.2 | -0.8 | 0/6 | 0/6 | 4.6 | 
2 | Nc1ccn([C@@H]2O[C@H](CO)[C@@H](O)C2(F)F)c(=O)n1 [gemcitabine] |  |  |  |  |  |  |  |  |  |  |  |  | tracked with the clofarabine results
